# Reference: patent US20210275596A1, “APPLICATION OF GENE PROFILE FOR CELLS ISOLATED USING FRESH-TRACER” (CELL2IN, INC., priority 2018, published 2021)
# Columns and labels:
# Type in all cases: cell-based, human
# HeLa cells [1] = test: FR monitoring in cells loaded with FreSH-tracer; details: for change of FR: HeLa cells equilibrated with 5 μM FreSH-tracer for 2 hours
# Procedure: To utilize a FreSH-tracer for GSH monitoring in living cells, its cytotoxicity was evaluated. […] HeLa cells were equilibrated with treatment of 5 μM FreSH-tracer for 2 hours. […] The FR in the nucleus was about 1.5- to 2-fold higher than that of the cytoplasm.
# The in vitro experiments described above established that H2O2 treatment diminishes only the FRGSH, while having little effect on the FRPSH. […] Thus, the FreSH-tracer can report the real-time dynamic changes of GSH concentration in live cells under oxidative stress.
# hES-MSCs [2] = test: Chemotaxis to PDGF-AA; details: for effect on chemoattraction to PDGF: naive hES-MSCs
# Procedure: FIGS. 4A, 4B, 4C and 4D are graphs showing analyses of colony-forming unit fibroblasts (CFU-F; n=15), limiting dilution by replating primary CFU colonies (n=6), chemotaxis to stromal derived factor-1α (SDFα; 150 ng/mL, n=8), and chemotaxis to 10 ng/mL platelet-derived growth factor (PDGF)-AA in the absence or presence of STI571 (0.5 μg/mL), a PDGFR inhibitor (n=8).
# At this time, for differentiation media, the cells were maintained and cultured in each of adipogenic induction medium (DMEM supplemented with 5% FBS, […], […], […] and 0.5 mM isobutylmethylxanthine), osteogenic induction medium (DMEM supplemented with 5% FBS, […], […], and 10 mM glycerophosphate), and chondrogenic induction medium (e.g., StemPro chondrogenesis, Invitrogen). FIG. 3 is a graph showing the results of qPCR performed to quantify lineage-specific genes in non-differentiated(Non) FR^High cells and FR^Low cells and differentiated(Diff) FR^High cells and FR^Low cells. Additionally, FR^High hES-MSCs had approximately 4.7- and 4.9-fold higher numbers of CFU-F than did FR^Mild and FR^Low cells, respectively (FIG. 4A).
# hES-MSCs [3] = test: GSH depletion or supplementation: clonogenic and migration capacities
# HeLa cells [4] = test: Mitochondrial FR monitoring with MitoFreSH-tracer
# Excerpt: The mitochondrion is the major site of endogenous ROS generation during normal oxidative metabolism. Cytosolic GSH is transported to the mitochondria, preventing macromolecular damage and modulating ROS-induced signaling. To further analyze the FR heterogeneity in the cytoplasm, a mitochondria-targeting FreSH-tracer derivative, designated MitoFreSH-tracer was synthesized by attaching a triphenylphosphonium moiety to a FreSH-tracer.
compound,measurement,setting,value
"O=[N+]([O-])c1ccc(Cl)c([N+](=O)[O-])c1 [1-chloro-2,4-dinitrobenzene]",restoring of FR after diamide,HeLa cells [1]; GSH-depleted HeLa cells,abrogated
"CCCCS(=N)(=O)CCC(N)C(=O)O (centres unmarked) [BSO, buthionine sulfoximine]",effect on chemoattraction to PDGF,hES-MSCs [2],significant repression
same,effect on enhanced clonogenic and migration capacities and related gene upregulation,hES-MSCs [3]; FR^High hES-MSCs,severely impaired
O[C@@H](CS)[C@@H](O)CS [DTT],change of FR,HeLa cells [1],rapidly increased
"CCOC(=O)CNC(=O)[C@H](CS)NC(=O)CC[C@H](N)C(=O)O [GSH-EE, glutathione ethyl ester]",effect on chemoattraction to PDGF,hES-MSCs [2],activation
same,effect on declined cellular functions,hES-MSCs [3]; FR^Low hES-MSCs,reversed
CCN1C(=O)C=CC1=O [NEM],change of FR,HeLa cells [1],gradually decreased
Cc1ccc(NC(=O)c2ccc(CN3CCN(C)CC3)cc2)cc1Nc1nccc(-c2cccnc2)n1 [STI571],effect on PDGF chemotactic activity of FR^High cells,"hES-MSCs [2]; STI571 0.5 μg/mL, 10 ng/mL PDGF-AA",significantly blocked
CN(C)C(=O)/N=N/C(=O)N(C)C [diamide],change of FR,HeLa cells [1],gradually decreased
same,change of mitochondrial FR,HeLa cells [4],decreased
antimycin A,change of mitochondrial FR,HeLa cells [4],concentration-dependent decrease
